# Measurements published in patent publication US20090311217A1, “3-SUBSTITUTED-1H-INDOLE COMPOUNDS, THEIR USE AS MTOR KINASE AND PI3 KINASE INHIBITORS, AND THEIR SYNTHESES” (priority 2008, published 2009).
# Biological target: PI3K-alpha (Homo sapiens, UniProt P42336)
# Assay: PI3K-alpha fluorescence polarization assay
# Assay type: biochemical
# Settings: read-out: PI3Kα Avg. IC50
# Chain of PI3K-alpha (P42336 whole entry, species assumed): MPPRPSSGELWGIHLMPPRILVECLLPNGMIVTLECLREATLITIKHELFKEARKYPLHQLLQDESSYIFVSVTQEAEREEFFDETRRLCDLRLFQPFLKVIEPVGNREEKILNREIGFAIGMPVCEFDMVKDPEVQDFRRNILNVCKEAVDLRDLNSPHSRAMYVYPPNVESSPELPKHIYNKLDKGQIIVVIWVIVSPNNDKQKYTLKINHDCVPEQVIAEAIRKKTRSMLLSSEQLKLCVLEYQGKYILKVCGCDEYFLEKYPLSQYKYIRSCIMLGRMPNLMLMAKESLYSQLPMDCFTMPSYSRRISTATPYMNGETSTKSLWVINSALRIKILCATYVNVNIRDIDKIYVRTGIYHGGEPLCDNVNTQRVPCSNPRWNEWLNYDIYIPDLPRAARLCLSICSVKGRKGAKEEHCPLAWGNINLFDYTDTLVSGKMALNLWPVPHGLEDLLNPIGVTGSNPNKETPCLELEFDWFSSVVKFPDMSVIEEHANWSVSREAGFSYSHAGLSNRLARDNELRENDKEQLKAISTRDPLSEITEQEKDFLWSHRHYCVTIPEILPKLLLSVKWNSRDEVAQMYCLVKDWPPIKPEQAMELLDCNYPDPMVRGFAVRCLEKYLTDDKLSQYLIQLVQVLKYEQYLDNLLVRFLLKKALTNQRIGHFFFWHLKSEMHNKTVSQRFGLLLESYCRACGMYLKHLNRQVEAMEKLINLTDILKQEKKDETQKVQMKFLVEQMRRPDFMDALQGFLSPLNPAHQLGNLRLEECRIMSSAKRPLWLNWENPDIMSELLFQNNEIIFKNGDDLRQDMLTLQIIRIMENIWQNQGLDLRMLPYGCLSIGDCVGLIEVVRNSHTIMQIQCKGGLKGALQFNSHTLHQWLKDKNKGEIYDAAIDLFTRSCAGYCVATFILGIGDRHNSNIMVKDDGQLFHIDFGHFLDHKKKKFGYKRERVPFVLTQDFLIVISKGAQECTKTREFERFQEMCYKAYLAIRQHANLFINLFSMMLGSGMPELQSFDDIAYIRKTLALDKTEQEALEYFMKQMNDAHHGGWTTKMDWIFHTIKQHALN
# Chain of PI3K-alpha (P27986 whole entry partner, species assumed): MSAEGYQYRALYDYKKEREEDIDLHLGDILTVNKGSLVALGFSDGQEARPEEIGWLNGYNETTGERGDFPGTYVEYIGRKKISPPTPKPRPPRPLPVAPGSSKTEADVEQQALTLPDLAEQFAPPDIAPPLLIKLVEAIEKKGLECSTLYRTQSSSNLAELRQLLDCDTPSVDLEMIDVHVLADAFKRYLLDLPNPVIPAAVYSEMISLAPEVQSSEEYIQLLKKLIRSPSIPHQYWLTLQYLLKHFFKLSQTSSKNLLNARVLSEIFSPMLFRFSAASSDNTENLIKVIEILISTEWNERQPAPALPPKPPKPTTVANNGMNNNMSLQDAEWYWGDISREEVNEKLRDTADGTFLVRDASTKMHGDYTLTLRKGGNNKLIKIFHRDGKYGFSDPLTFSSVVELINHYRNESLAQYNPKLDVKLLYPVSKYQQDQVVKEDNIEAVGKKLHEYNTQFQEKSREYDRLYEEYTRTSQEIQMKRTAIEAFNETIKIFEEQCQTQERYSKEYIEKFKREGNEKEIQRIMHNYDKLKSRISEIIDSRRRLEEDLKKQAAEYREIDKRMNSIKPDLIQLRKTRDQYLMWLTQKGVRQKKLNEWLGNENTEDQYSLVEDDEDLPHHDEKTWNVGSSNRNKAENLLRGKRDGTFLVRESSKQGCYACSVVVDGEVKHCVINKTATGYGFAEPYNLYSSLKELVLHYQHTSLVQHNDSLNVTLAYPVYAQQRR
row,Structure (SMILES),IC50 [µM]
1,"COc1ccc2c(c1)c(C=C1Oc3c(ccc(O)c3O)C1=O)c(C)n2CCCCN1CCOCC1 [Example 145, 6,7-dihydroxy-2-{[5-methoxy-2-methyl-1-(4-morpholin-4-ylbutyl)-1H-indol-3-yl]methylene}-1-benzofuran-3(2H)-one]",0.825
2,"COc1ccc2c(c1)c(C=C1Oc3c(ccc(O)c3O)C1=O)c(C)n2CCCCN1CCN(CCO)CC1 [Example 146, 6,7-dihydroxy-2-[(1-{4-[4-(2-hydroxyethyl)piperazin-1-yl]butyl}-5-methoxy-2-methyl-1H-indol-3-yl)methylene]-1-benzofuran-3(2H)-one]",0.85
3,"Cc1c(C=C2Oc3cc(O)cc(O)c3C2=O)c2cc(F)ccc2n1C [Example 235, 2-[(5-fluoro-1,2-dimethyl-1H-indol-3-yl)methylene]-4,6-dihydroxy-1-benzofuran-3(2H)-one]",4.03
4,"Cn1cc(/C=C2\Sc3ccccc3C2=O)c2ccccc21 [Example 278, (2Z)-2-[(1-methyl-1H-indol-3-yl)methylene]-1-benzothiophen-3(2H)-one]",3.1
5,"Cc1ccc2c(/C=C3\Sc4ccccc4C3=O)c[nH]c2c1 [Example 279, (2Z)-2-[(6-methyl-1H-indol-3-yl)methylene]-1-benzothiophen-3(2H)-one]",> 10
6,"Cc1cccc2c(/C=C3\Sc4ccccc4C3=O)c[nH]c12 [Example 280, (2Z)-2-[(7-methyl-1H-indol-3-yl)methylene]-1-benzothiophen-3(2H)-one]",4.56
7,"O=C1/C(=C/c2c[nH]c3ccccc23)Sc2ccc(Cl)cc21 [Example 281, (2Z)-5-chloro-2-(1H-indol-3-ylmethylene)-1-benzothiophen-3(2H)-one]",> 10
8,"O=C1/C(=C/c2c[nH]c3ccc(OCc4ccccc4)cc23)Sc2ccc(Cl)cc21 [Example 288, (2Z)-2-{[5-(benzyloxy)-1H-indol-3-yl]methylene}-5-chloro-1-benzothiophen-3(2H)-one]",> 10

# Further lines, results first:
row,IC50 [µM],Structure (SMILES)
1,1.32,"Cc1[nH]c2ccccc2c1/C=C1\Sc2ccccc2C1=O [Example 272, (2Z)-2-[(2-methyl-1H-indol-3-yl)methylene]-1-benzothiophen-3(2H)-one]"
2,9.62,"O=C1/C(=C/c2c[nH]c3ccccc23)Sc2ccccc21 [Example 273, (2Z)-2-(1H-indol-3-ylmethylene)-1-benzothiophen-3(2H)-one]"
3,2.8,"Cn1c(-c2ccccc2)c(/C=C2\Sc3ccccc3C2=O)c2ccccc21 [Example 275, (2Z)-2-[(1-methyl-2-phenyl-1H-indol-3-yl)methylene]-1-benzothiophen-3(2H)-one]"
4,> 10,"O=C1/C(=C/c2c(-c3ccc4ccccc4c3)[nH]c3ccccc23)Sc2ccccc21 [Example 276, (2Z)-2-{[2-(2-naphthyl)-1H-indol-3-yl]methylene}-1-benzothiophen-3(2H)-one]"
5,1.42,"O=C1/C(=C/c2cn(Cc3ccccc3)c3ccccc23)Sc2ccccc21 [Example 282, (2Z)-2-[(1-benzyl-1H-indol-3-yl)methylene]-1-benzothiophen-3(2H)-one]"
6,> 10,"O=C1/C(=C/c2c(-c3ccccc3)[nH]c3ccccc23)Sc2ccc(Cl)cc21 [Example 283, (2Z)-5-chloro-2-[(2-phenyl-1H-indol-3-yl)methylene]-1-benzothiophen-3(2H)-one]"
7,> 10,"O=C1/C(=C/c2c(-c3ccc(Cl)cc3)[nH]c3ccccc23)Sc2ccc(Cl)cc21 [Example 284, (2Z)-5-chloro-2-{[2-(4-chlorophenyl)-1H-indol-3-yl]methylene}-1-benzothiophen-3(2H)-one]"
8,> 10,"O=C1/C(=C/c2c(-c3ccc(F)cc3)[nH]c3ccccc23)Sc2ccc(Cl)cc21 [Example 286, (2Z)-5-chloro-2-{[2-(4-fluorophenyl)-1H-indol-3-yl]methylene}-1-benzothiophen-3(2H)-one]"
9,> 10,"O=C1/C(=C/c2cn(Cc3ccccc3)c3ccccc23)Sc2ccc(Cl)cc21 [Example 287, (2Z)-2-[(1-benzyl-1H-indol-3-yl)methylene]-5-chloro-1-benzothiophen-3(2H)-one]"
